Source: patent publication US12459918B2, “Isoquinolinone derivatives serving as rock protein kinase inhibitors and use thereof” (GUANGZHOU OCUSUN OPHTHALMIC BIOTECHNOLOGY CO., LTD., priority 2019, dated 2025)
Each block holds one compound with its values, some of them ahead of it.

Tests used:
Type in all cases: in vivo
[1] = system: New Zealand rabbits with normal intraocular pressure; assay: Ocular stimulation response examination by hand-held slit lamp, 14 days eye-drop administration; settings: 14 consecutive days, 50 μL/eye/day
Description: (§1) 42 male New Zealand rabbits were randomly divided into 7 groups, with 6 rabbits per group. Animals were randomly divided according to body weight Animals in 1-7 groups were eye-dropped with normal saline in the left eye and with solvent/control sample/test sample in the right eye respectively by a volume of 50 μL/eye, once per day for 14 consecutive days, and the day of administration was recorded as Day 1. The intraocular pressure of the animals was measured before Day 1 administration and in 1, 2, 4, 6, 8 and 10 hours after Day 1 administration, respectively (Table 8).
Before the experiment (Day 2/Day 1), before daily administration during the administration (Days 1-14), and in 1, 2, 4, 24, 48 and 72 hours after the last administration (Day 14), the eyes of animals were examined for ocular stimulation response and fluorescein sodium by a hand-held slit lamp (scoring by referring to the scoring criteria).
Before the experiment (Day 2/Day 1), before the first daily administration (Days 1-14) during the administration, and in 1, 2, 4, 24, 48 and 72 hours after the last administration, the eyes of animals were examined for ocular stimulation response by a hand-held slit lamp. The scoring criteria were as follows. […]

[2] = system: New Zealand rabbits with normal intraocular pressure; assay: Repeated eye-drop administration for 14 days, experiment operation 2: Day 1 intraocular pressure; settings: for Mean intraocular pressure of both eyes: saline in left; for Mean intraocular pressure of both eyes / Change of intraocular pressure: Day 1; for Change of intraocular pressure: 4 mg/mL, group minus negative control
Source text: Experimental example 4. Experiment on reduction of intraocular pressure and ocular toxicity of New Zealand rabbits with normal intraocular pressure by repeated eye-drop administration for 14 days
The intraocular pressure reduction action and the potential ocular toxicity of compound 63 were explored by 14 days of repeated eye-drop administration in rabbits with normal intraocular pressure.
Male New Zealand rabbits, aged 97-127 days, weighted 2.6-3.5 kg, purchased from PizhouDongfang Breeding Co. Ltd.
as §1

[3] = system: New Zealand rabbits with acute ocular hypertension; assay: Intraocular pressure reduction experiment in New Zealand rabbits with acute ocular hypertension, experiment operation 1; settings: 10 mg/mL both eyes; for Intraocular pressure in the left eye: left eye (not modeled); for Intraocular pressure in the right eye: right eye (induced ocular hypertension)
Source text: Experimental Example 3. Intraocular Pressure Reduction Experiment in New Zealand Rabbits with Acute Ocular Hypertension
Acute ocular hypertension of rabbits were induced by anterior chamber injection of a viscoelastic agent and the intraocular pressure reduction action of compound 60 and compound 63 at different concentrations were explored by eye-drop administration.
Male New Zealand rabbits, aged 97-127 days, weighted 2.5-3.4 kg, purchased from PizhouDongfang Breeding Co. Ltd.
Male New Zealand rabbits were randomly divided into 8 rabbits/per group according to body weight using a computer-generated randomization method. The animals in each group were injected with medical sodium hyaluronate gel in the anterior chamber of right eye in a single dose, 100 μL/eye, to induce ocular hypertension. In 5-15 minutes, 3 hours and 6 hours after right eye modeling, both eyes were dropped with a solvent, K-115 or test samples (compound 60 at different concentrations) at a volume of 50 μL/eye and intraocular pressure of the animals was measured before administration and in 1, 2, 4, 6, 8 and 10 hours after administration, respectively.

[4] = 4 mg/mL in right eye, 1 hour after administration
[5] = 4 mg/mL in right eye, 2 hours after administration
[6] = 4 mg/mL in right eye, 4 hours after administration
[7] = 4 mg/mL in right eye, 6 hours after administration
[8] = 4 mg/mL in right eye, 8 hours after administration
[9] = 4 mg/mL in right eye, 10 hours after administration
[10] = 4 mg/mL in right eye, before administration

Evaluation of ocular stimulation ([1]; concentration range of 0.25-4 mg/mL): no stimulation
Compound: Cc1ccc(C(=O)OCn2cc(C)c3c(S(=O)(=O)N4CC[C@H](N)C4)cccc3c2=O)c(C)c1 [Compound 63]
Mean intraocular pressure of both eyes ([2]; 0.25 mg/mL in right eye, 1 hour after administration): 6.22 mmHg
Mean intraocular pressure of both eyes ([2]; 0.25 mg/mL in right eye, 2 hours after administration): 6.17 mmHg
Mean intraocular pressure of both eyes ([2]; 0.25 mg/mL in right eye, 4 hours after administration): 6.67 mmHg
Mean intraocular pressure of both eyes ([2]; 0.25 mg/mL in right eye, 6 hours after administration): 8.06 mmHg
Mean intraocular pressure of both eyes ([2]; 0.25 mg/mL in right eye, 8 hours after administration): 9.72 mmHg
Mean intraocular pressure of both eyes ([2]; 0.25 mg/mL in right eye, 10 hours after administration): 10.95 mmHg
Mean intraocular pressure of both eyes ([2]; 0.25 mg/mL in right eye, before administration): 9.84 mmHg
Mean intraocular pressure of both eyes ([2]; 0.5 mg/mL in right eye, 1 hour after administration): 5.39 mmHg
Mean intraocular pressure of both eyes ([2]; 0.5 mg/mL in right eye, 2 hours after administration): 5.50 mmHg
Mean intraocular pressure of both eyes ([2]; 0.5 mg/mL in right eye, 4 hours after administration): 6.95 mmHg
Mean intraocular pressure of both eyes ([2]; 0.5 mg/mL in right eye, 6 hours after administration): 8.94 mmHg
Mean intraocular pressure of both eyes ([2]; 0.5 mg/mL in right eye, 8 hours after administration): 9.89 mmHg
Mean intraocular pressure of both eyes ([2]; 0.5 mg/mL in right eye, 10 hours after administration): 11.56 mmHg
Mean intraocular pressure of both eyes ([2]; 0.5 mg/mL in right eye, before administration): 9.22 mmHg
Mean intraocular pressure of both eyes ([2]; 1.0 mg/mL in right eye, 1 hour after administration): 5.56 mmHg
Mean intraocular pressure of both eyes ([2]; 1.0 mg/mL in right eye, 2 hours after administration): 5.39 mmHg
Mean intraocular pressure of both eyes ([2]; 1.0 mg/mL in right eye, 4 hours after administration): 6.67 mmHg
Mean intraocular pressure of both eyes ([2]; 1.0 mg/mL in right eye, 6 hours after administration): 7.33 mmHg
Mean intraocular pressure of both eyes ([2]; 1.0 mg/mL in right eye, 8 hours after administration): 10.50 mmHg
Mean intraocular pressure of both eyes ([2]; 1.0 mg/mL in right eye, 10 hours after administration): 10.89 mmHg
Mean intraocular pressure of both eyes ([2]; 1.0 mg/mL in right eye, before administration): 9.17 mmHg
Mean intraocular pressure of both eyes ([2]; 2.0 mg/mL in right eye, 1 hour after administration): 8.11 mmHg
Mean intraocular pressure of both eyes ([2]; 2.0 mg/mL in right eye, 2 hours after administration): 5.84 mmHg
Mean intraocular pressure of both eyes ([2]; 2.0 mg/mL in right eye, 4 hours after administration): 6.06 mmHg
Mean intraocular pressure of both eyes ([2]; 2.0 mg/mL in right eye, 6 hours after administration): 7.11 mmHg
Mean intraocular pressure of both eyes ([2]; 2.0 mg/mL in right eye, 8 hours after administration): 9.00 mmHg
Mean intraocular pressure of both eyes ([2]; 2.0 mg/mL in right eye, 10 hours after administration): 10.05 mmHg
Mean intraocular pressure of both eyes ([2]; 2.0 mg/mL in right eye, before administration): 9.72 mmHg
Mean intraocular pressure of both eyes [2, 4]: 6.61 mmHg
Mean intraocular pressure of both eyes [2, 5]: 5.84 mmHg
Mean intraocular pressure of both eyes [2, 6]: 5.72 mmHg
Mean intraocular pressure of both eyes [2, 7]: 6.61 mmHg
Mean intraocular pressure of both eyes [2, 8]: 8.39 mmHg
Mean intraocular pressure of both eyes [2, 9]: 10.67 mmHg
Mean intraocular pressure of both eyes [2, 10]: 10.00 mmHg
Efficacy of a single dose (highest hypotensive effect and action duration) ([2]; all test doses (0.25-4.0 mg/mL), compared with K-115): superior efficacy

Evaluation of ocular stimulation ([1]; 4 mg/mL): no stimulation
Compound: C[C@H]1CNCCCN1S(=O)(=O)c1cccc2cncc(F)c12 [Compound K-115, reference compound]
Mean intraocular pressure of both eyes [2, 4]: 5.50 mmHg
Mean intraocular pressure of both eyes [2, 5]: 7.06 mmHg
Mean intraocular pressure of both eyes [2, 6]: 9.00 mmHg
Mean intraocular pressure of both eyes [2, 7]: 9.17 mmHg
Mean intraocular pressure of both eyes [2, 8]: 10.61 mmHg
Mean intraocular pressure of both eyes [2, 9]: 12.33 mmHg
Mean intraocular pressure of both eyes [2, 10]: 10.17 mmHg
Change of intraocular pressure ([2]; 1 hour after administration): −3.39 mmHg
Change of intraocular pressure ([2]; 2 hours after administration): −2.50 mmHg
Change of intraocular pressure ([2]; 4 hours after administration): −0.89 mmHg
Change of intraocular pressure ([2]; 6 hours after administration): −1.61 mmHg
Change of intraocular pressure ([2]; 8 hours after administration): 0.23 mmHg
Change of intraocular pressure ([2]; 10 hours after administration): 0.17 mmHg
Change of intraocular pressure ([2]; before administration): 0.83 mmHg
Intraocular pressure in the left eye ([3]; 1 hour after administration): 5.88 mmHg
Intraocular pressure in the left eye ([3]; 2 hours after administration): 5.96 mmHg
Intraocular pressure in the left eye ([3]; 4 hours after administration): 8.29 mmHg
Intraocular pressure in the left eye ([3]; 6 hours after administration): 10.54 mmHg
Intraocular pressure in the left eye ([3]; 8 hours after administration): 11.88 mmHg
Intraocular pressure in the left eye ([3]; 10 hours after administration): 11.79 mmHg
Intraocular pressure in the left eye ([3]; before administration): 11.79 mmHg
Intraocular pressure in the right eye ([3]; 1 hour after administration): 28.79 mmHg
Intraocular pressure in the right eye ([3]; 2 hours after administration): 22.67 mmHg
Intraocular pressure in the right eye ([3]; 4 hours after administration): 26.08 mmHg
Intraocular pressure in the right eye ([3]; 6 hours after administration): 23.25 mmHg
Intraocular pressure in the right eye ([3]; 8 hours after administration): 23.25 mmHg
Intraocular pressure in the right eye ([3]; 10 hours after administration): 11.92 mmHg
Intraocular pressure in the right eye ([3]; before administration): 11.92 mmHg
